Data taken from patent publication US20210139517A1, “BICYCLIC HETEROARYL COMPOUNDS AND USES THEREOF” (Revolution Medicines, Inc., priority 2019, published 2021).
pIC50: −log10 of the molar value.

System: SOS1 function in cells: cellular pERK in PC-9 cells (EGFR Ex19Del)
Test: pERK potency assay in PC-9 cells (AlphaLISA SureFire Ultra p-ERK1/2)
Format: cell-based
Conditions: 1 hour incubation
Experimental: The purpose of this assay is tomeasure the ability of test compounds to inhibit SOS1 function in cells. SOS1 activates RAS proteins by catalyzing the conversion of RAS-GDP to RAS-GTP in response to receptor tyrosine kinase activation. […] The procedure described below measures the level of cellular pERK in response to test compounds in PC-9 cells (EGFR Ex19Del).
PC-9 cells were grown and maintained using media and procedures recommended by the ATCC. On the day prior to compound addition, cells were plated in 384-well cell culture plates (40 μL/well) and grown overnight in a 37° C., 5% CO2 incubator. Test compounds were prepared in 10, 3-fold dilutions in DMSO, with a top concentration of 10 mM. On the day of the assay, 40 nL of test compound was added to each well of cell culture plate using an Echo550 liquid handler (LabCyte). Concentrations of test compound were tested in duplicate with highest test concentration being 10 μM. After compound addition, cells were incubated for 1 hour at 37° C., 5% CO2. Following incubation, culture medium was removed and cells were washed once with phosphate buffered saline.
Cellular pERK level was determined using the AlphaLISA SureFire Ultra p-ERK1/2 Assay Kit (PerkinElmer). Cells were lysed in 25 μL lysis buffer, with shaking at 600 RPM at room temperature for 15 minutes. Lysate (10 μL) was transferred to a 384-well Opti-plate (PerkinElmer) and 5 μL acceptor mix was added. The plate was centrifuged at 1000 RPM for 1 minute, and incubated in the dark for 2 hours. Following this incubation, 5 μL of donor mix was added, the plate was sealed and centrifuged at 1000 RPM for 1 minute, and the mixture was incubated for 2 hours at room temperature. Signal was read on an Envision plate reader (PerkinElmer) using standard AlphaLISA settings. Analysis of raw data was carried out in Excel (Microsoft) and Prism (GraphPad). Signal was plotted vs. the decadal logarithm of compound concentration, and IC50 was determined by fitting a 4-parameter sigmoidal concentration response model.

SMILES | pIC50 | pIC50 (Homo sapiens, PC-9, 1 h)
CC(=O)N1CCC(c2cc3c(N[C@H](C)c4cccc(C(F)F)c4F)ncnc3n(C)c2=O)CC1 [Example 8-3] | 6.84 | 
C[C@@H](Nc1ncnc2c1cc(C1CCN(CCF)CC1)c(=O)n2C)c1cccc(C(F)F)c1F [Example 8-4] | 6.64 | 
C[C@@H](Nc1ncnc2c1cc(C1CCS(=O)(=O)CC1)c(=O)n2C)c1cccc(C(F)F)c1F [Example 8-5] | 7.47 | 
CC(=O)N1CCC(c2cc3c(N[C@H](C)c4cccc5c4CCC5(F)F)ncnc3n(C)c2=O)CC1 [Example 8-6] | 7.46 | 
CCc1c(C(F)F)cccc1[C@@H](C)Nc1ncnc2c1cc(C1CCN(C(C)=O)CC1)c(=O)n2C [Example 8-7] | 6.45 | 
C[C@@H](Nc1ncnc2c1cc(C1CCN(C3COC3)CC1)c(=O)n2C)c1cccc(C(F)F)c1F [Example 8-8] | 6.41 | 
CC(=O)N1CCC(c2cc3c(N[C@H](C)c4cccc(C(F)F)c4F)nc(C)nc3n(C)c2=O)CC1 [Example 8-9] | 7.06 | 
C[C@@H](Nc1ncnc2c1cc(C1CCN(C(=O)CO)CC1)c(=O)n2C)c1cccc(C(F)F)c1F [Example 8-10] | 7.21 | 
Cc1c([C@@H](C)Nc2ncnc3c2cc(C2CCS(=O)(=O)CC2)c(=O)n3C)cccc1C(F)(F)F [Example 8-11] | 7.35 | 
Cc1nc(N[C@H](C)c2cccc(C(F)F)c2F)c2cc(C3CCS(=O)(=O)CC3)c(=O)n(C)c2n1 [Example 8-12] | 6.86 | 
C[C@@H](Nc1ncnc2c1cc(C1CCN(CC(F)F)CC1)c(=O)n2C)c1cccc(C(F)F)c1F [Example 8-13] | 6.44 | 
Cc1nc(N[C@H](C)c2cccc(C(F)F)c2F)c2cc(C3CCN(C4COC4)CC3)c(=O)n(C)c2n1 [Example 8-14] | 6.38 | 
C[C@@H](Nc1ncnc2c1cc(C1CCN(S(C)(=O)=O)CC1)c(=O)n2C)c1cccc(C(F)F)c1F [Example 8-15] | 6.40 | 
C[C@@H](Nc1ncnc2c1cc(C1CCN(CC(F)(F)F)CC1)c(=O)n2C)c1cccc(C(F)F)c1F [Example 8-16] | 6.04 | 
Cc1nc(N[C@H](C)c2cccc(C(F)F)c2F)c2cc(C3CCN(CC(F)(F)F)CC3)c(=O)n(C)c2n1 [Example 8-17] | 6.27 | 
Cc1nc(N[C@H](C)c2cccc(C(F)F)c2F)c2cc(C3=CCCOC3)c(=O)n(CCO)c2n1 [Example 11-1] | 6.46 | 
C[C@@H](Nc1ncnc2c1cc(C1=CCS(=O)(=O)CC1)c(=O)n2CC#N)c1cccc(C(F)F)c1F [Example 11-3] | 7.09 | 
COC1(c2cc3c(N[C@H](C)c4cccc(C(F)F)c4F)ncnc3n(C3CC3)c2=O)CCN(C(C)=O)CC1 [Example 11-4] | 7.49 | 
Cc1nc(N[C@H](C)c2cccc(C(F)F)c2F)c2cc(C3COC3)c(=O)n(C)c2n1 [Example 16, 4-[[(1R)-1-[3-(difluoromethyl)-2-fluoro-phenyl]ethyl]amino]-2,8-dimethyl-6-(oxetan-3-yl)pyrido[2,3-d]pyrimidin-7-one] |  | 6.46
CC(=O)N1CCC(c2cc3c(N[C@H](C)c4cc(N)cc(C(F)(F)F)n4)ncnc3n(C)c2=O)CC1 [Example 17, 6-(1-acetyl-4-piperidyl)-4-[[(1R)-1-[4-amino-6-(trifluoromethyl)-2-pyridyl]ethyl]amino]-8-methyl-pyrido[2,3-d]pyrimidin-7-one] |  | 6.42

SMILES | pIC50 | pIC50 (Homo sapiens, PC-9, 1 h)
COc1ccc(Cc2cc3c(N[C@H](C)c4cccc(C(F)F)c4F)nc(C)nc3n(C)c2=O)cc1OC [Example 20-1] | 5.18 | 
C[C@@H](Nc1ncnc2c1cc(Cc1ccccc1)c(=O)n2C)c1cccc(C(F)F)c1F [Example 20-2] | 5.59 | 
C[C@@H](Nc1ncnc2c1cc(Cc1ccccc1)c(=O)n2C)c1cccc(C(F)(F)F)c1 [Example 20-3] | 5.58 | 
COc1cccc(Cc2cc3c(N[C@H](C)c4cccc(C(F)F)c4F)nc(C)nc3n(C)c2=O)c1OC [Example 20] | 5.40 | 
C[C@@H](Nc1ncnc2c1cc(-c1ccc[nH]1)c(=O)n2C)c1cccc(C(F)F)c1F [Example 21-1] | 5.94 | 
C[C@@H](Nc1ncnc2c1cc(-c1cncnc1)c(=O)n2C)c1cccc(C(F)F)c1F [Example 21-2] | 6.61 | 
Cc1nc(N[C@H](C)c2cccc(C(F)F)c2F)c2cc(-c3ccnnc3)c(=O)n(C)c2n1 [Example 21-3] | 6.73 | 
Cc1nc(N[C@H](C)c2cccc(C(F)F)c2F)c2cc(-c3cncnc3)c(=O)n(C)c2n1 [Example 21-4] | 6.44 | 
C[C@@H](Nc1ncnc2c1cc(-c1cnc(F)nc1)c(=O)n2C)c1cccc(C(F)F)c1F [Example 21-5] | 5.92 | 
COc1ncccc1-c1cc2c(N[C@H](C)c3cccc(C(F)F)c3F)ncnc2n(C)c1=O [Example 21-7] | 6.82 | 
C[C@@H](Nc1ncnc2c1cc(-c1ccc3nonc3c1)c(=O)n2C)c1cccc(C(F)F)c1F [Example 21-8] | 6.48 | 
C[C@@H](Nc1ncnc2c1cc(C1(O)CCN(C)CC1)c(=O)n2C)c1cccc(C(F)F)c1F [Example 28-1] | 6.73 | 
Cc1nc(N[C@H](C)c2cccc(C(F)F)c2F)c2cc(C3(O)CCN(C)CC3)c(=O)n(C)c2n1 [Example 28-2] | 6.24 | 
C[C@@H](Nc1ncnc2c1cc(C1(N)CCC3(CC1)CS(=O)(=O)C3)c(=O)n2C)c1cccc(C(F)F)c1F [Example 31-5] | 7.57 | 
COC1(c2cc3c(N[C@H](C)c4cccc(C(F)F)c4F)ncnc3n(C)c2=O)CCN(C)CC1 [Example 32-3] | 5.65 | 
COC1(c2cc3c(N[C@H](C)c4cccc(C(F)F)c4F)ncnc3n(C)c2=O)CCS(=O)(=O)C(C)C1 (stereo partly shown) [Example 32-67] | 6.89 | 
COC1(c2cc3c(N[C@H](C)c4cccc(C(F)F)c4F)ncnc3n(C)c2=O)CCCN(C(C)=O)C1 (stereo partly shown) [Example 32-68] | 7.17 | 
CO[C@@]1(c2cc3c(N[C@H](C)c4cccc(C(F)F)c4F)nc(C)nc3n(C)c2=O)CCN(C(C)=O)C1 [Example 32-69] | 7.11 | 
CC(=O)N1CCC(OC2CC2)(c2cc3c(N[C@H](C)c4cccc(C(F)F)c4F)ncnc3n(C)c2=O)C1 (stereo partly shown) [Example 32-70] | 6.46 | 
CC(=O)N1CCC(OC2CC2)(c2cc3c(N[C@H](C)c4cccc(C(F)F)c4F)ncnc3n(C)c2=O)C1 (stereo partly shown) [Example 32-71] | 7.38 | 

SMILES | pIC50 | pIC50 (Homo sapiens, PC-9, 1 h)
COC1(c2cc3c(N[C@H](C)c4cccc(C(F)F)c4F)ncnc3n(C)c2=O)CCC2(CC1)COC2 [Example 32-72] | 6.90 | 
COC1(c2cc3c(N[C@H](C)c4cccc(C(F)F)c4F)ncnc3n(C)c2=O)CCS(=O)(=O)C1 (stereo partly shown) [Example 32-73] | 7.24 | 
COC1(c2cc3c(N[C@H](C)c4cccc(C(F)F)c4F)ncnc3n(C)c2=O)CCS(=O)(=O)C1 (stereo partly shown) [Example 32-74] | 6.70 | 
COC1(c2cc3c(N[C@H](C)c4cccc5c4OCC5(F)F)ncnc3n(C)c2=O)CCN(C(C)=O)CC1 [Example 32-76] | 7.76 | 
COC1(c2cc3c(N[C@H](C)c4cccc5c4OCC5(F)F)ncnc3n(C)c2=O)CCS(=O)(=O)CC1 [Example 32-77] | 7.32 | 
COC1(c2cc3c(N[C@H](C)c4cccc(C(F)F)c4F)ncnc3n(C)c2=O)CCC2(CC1)CN(C(C)=O)C2 [Example 32-78] | 7.31 | 
COC1(c2cc3c(N[C@H](C)c4cccc(C(F)F)c4F)ncnc3n(C)c2=O)CC2(COC2)C1 [Example 32-80] | 6.81 | 
COC1(c2cc3c(N[C@H](C)c4cccc(C(F)F)c4F)ncnc3n(C)c2=O)CCC2(CC1)CS(=O)(=NC1CC1)C2 (stereo partly shown) [Example 32-83] | 6.49 | 
COC1(c2cc3c(N[C@H](C)c4cccc(C(F)F)c4F)ncnc3n(C)c2=O)CC2CS(=O)(=O)CC2C1 (stereo partly shown) [Example 32-84] | 6.76 | 
COC1(c2cc3c(N[C@H](C)c4cccc(C(F)F)c4F)ncnc3n(C)c2=O)CC2CS(=O)(=O)CC2C1 (stereo partly shown) [Example 32-85] | 7.27 | 
COC1(c2cc3c(N[C@H](C)c4cccc(C(F)F)c4C)ncnc3n(C)c2=O)CCS(=O)(=O)CC1 [Example 32-86] | 7.08 | 
COC1(c2cc3c(N[C@H](C)c4cccc(C(F)F)c4C)ncnc3n(C)c2=O)CCN(C(C)=O)CC1 [Example 32-87] | 7.87 | 
COC1(c2cc3c(N[C@@H](C)c4cccc(C(F)F)c4F)ncnc3n(C)c2=O)CCN(C(C)=O)CC1 [Example 32-88] | 8.09 | 
CO[C@@]1(c2cc3c(N[C@H](C)c4cccc5c4OCC5(F)F)ncnc3n(C)c2=O)CCN(C(C)=O)C1 [Example 32-93] | 6.53 | 
CO[C@]1(c2cc3c(N[C@H](C)c4cccc5c4OCC5(F)F)ncnc3n(C)c2=O)CCN(C(C)=O)C1 [Example 32-94] | 7.55 | 
COC1(c2cc3c(N[C@H](C)c4cccc(C(F)F)c4F)ncnc3n(C)c2=O)CN(C(C)=O)CC12CC2 (stereo partly shown) [Example 32-95] | 6.10 | 
CO[C@]1(c2cc3c(N[C@H](C)c4cccc(C(F)F)c4C)ncnc3n(C)c2=O)CCN(C(C)=O)C1 [Example 32-98] | 6.64 | 
CO[C@@]1(c2cc3c(N[C@H](C)c4cccc(C(F)F)c4C)ncnc3n(C)c2=O)CCN(C(C)=O)C1 [Example 32-99] | 7.77 | 
